Source: ChEMBL document CHEMBL4382202, “1-(2-Hydroxybenzoyl)-thiosemicarbazides are promising antimicrobial agents targeting d-alanine-d-alanine ligase in bacterio” (Eur J Med Chem, 2018)
Calls of active or inactive are those of the source. The rule behind the calls is not given here.

Tests used:
[1] = target: T1, D-alanine--D-alanine ligase (Enterococcus faecalis (strain ATCC 700802 / V583)) (UniProt Q47758); assay: Inhibition of Enterococcus faecalis JH2-2 C-terminal 6His-tagged DdlB expressed in Escherichia coli LMG194 assessed as residual activity at 10 uM preincubated for 30 mins followed by substrate addition and measured after 20 mins by Biomol Green reagent assay relative to control
T1 sequence (whole entry): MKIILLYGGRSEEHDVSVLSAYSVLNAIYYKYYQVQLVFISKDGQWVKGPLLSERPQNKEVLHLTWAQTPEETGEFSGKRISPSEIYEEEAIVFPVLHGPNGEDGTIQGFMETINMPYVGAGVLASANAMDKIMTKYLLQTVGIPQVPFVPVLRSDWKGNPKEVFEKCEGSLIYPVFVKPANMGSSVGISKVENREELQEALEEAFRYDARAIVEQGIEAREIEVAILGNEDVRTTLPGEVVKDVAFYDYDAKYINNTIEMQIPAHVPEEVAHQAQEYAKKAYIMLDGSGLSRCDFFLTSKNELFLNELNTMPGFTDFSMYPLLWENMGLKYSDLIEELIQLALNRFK

[2] = target: T1, D-alanine--D-alanine ligase (Enterococcus faecalis (strain ATCC 700802 / V583)); assay: Inhibition of Enterococcus faecalis JH2-2 C-terminal 6His-tagged DdlB expressed in Escherichia coli LMG194 at 10 uM preincubated for 30 mins followed by substrate addition and measured after 20 mins by Biomol Green reagent assay relative to control
Klebsiella pneumoniae = assay: Antibacterial activity against Klebsiella pneumoniae ATCC 700603 after 18 to 24 hrs by microdilution assay; type: functional, organism-based
Pseudomonas aeruginosa = assay: Antibacterial activity against Pseudomonas aeruginosa PAO1 after 18 to 24 hrs by microdilution assay; type: functional, organism-based
Escherichia coli = assay: Antibacterial activity against Escherichia coli ATCC 25922 after 18 to 24 hrs by microdilution assay; type: functional, organism-based
[3] = target: T1, D-alanine--D-alanine ligase (Enterococcus faecalis (strain ATCC 700802 / V583)); assay: Inhibition of Enterococcus faecalis JH2-2 C-terminal 6His-tagged DdlB expressed in Escherichia coli LMG194 at IC50 after 10 mins by Biomol Green reagent assay relative to control
[4] = target: T1, D-alanine--D-alanine ligase (Enterococcus faecalis (strain ATCC 700802 / V583)); assay: Inhibition of Enterococcus faecalis JH2-2 C-terminal 6His-tagged DdlB expressed in Escherichia coli LMG194 at IC50 after 90 mins by Biomol Green reagent assay relative to control
[5] = target: T1, D-alanine--D-alanine ligase (Enterococcus faecalis (strain ATCC 700802 / V583)); assay: Inhibition of Enterococcus faecalis JH2-2 C-terminal 6His-tagged DdlB expressed in Escherichia coli LMG194 preincubated for 30 mins followed by substrate addition and measured after 20 mins in presence of 0.01% Triton X-100 by Biomol Green reagent assay

SMILES | Activity [1] [%] | inhibition [2] [%] | further results
O=C(NNC(=S)Nc1ccc(Cl)cc1)c1ccccc1 | 100 | – | –
O=C(NNC(=S)Nc1ccc(F)cc1)c1ccccc1O | – | > 30 | –
O=C(NNC(=S)Nc1ccc(Cl)cc1Cl)c1ccccc1O | – | > 30 | MIC (Klebsiella pneumoniae): inactive; MIC (Pseudomonas aeruginosa): inactive; MIC (Escherichia coli): inactive
O=C(NNC(=S)Nc1cccnc1)c1ccccc1O | – | 30 | –
O=C(NNC(=S)Nc1ccc(Cl)c(Cl)c1)c1cc2ccccc2cc1O | – | > 30 | –
COc1ccccc1C(=O)NNC(=S)Nc1ccc(Cl)c(Cl)c1 | 100 | – | –
N#Cc1ccc(NC(=S)NNC(=O)c2ccccc2O)cc1 | – | > 30 | –
O=C(NNC(=S)Nc1ccccc1)c1ccccc1O | – | > 30 | inhibition [3]: 60%; inhibition [4]: > 90%; inhibition [5]: Active
O=c1c2ccccc2ncn1NC(=S)Nc1ccccc1 | 100 | – | –
O=C(NNC(=S)Nc1ccc(F)cc1)c1ccccc1 | 100 | – | –
O=C(NNC(=S)Nc1ccccc1Cl)c1ccccc1 | 100 | – | –
O=C(NNC(=S)Nc1ccc(Cl)c(Cl)c1)c1cccc(O)c1 | 100 | – | –
O=C(NNC(=S)Nc1ccc(OC(F)(F)F)cc1)c1ccccc1O | – | > 30 | MIC (Klebsiella pneumoniae): inactive; MIC (Pseudomonas aeruginosa): inactive; MIC (Escherichia coli): inactive
O=C(NNC(=S)Nc1ccccc1Cl)c1ccccc1O | – | > 30 | MIC (Klebsiella pneumoniae): inactive; MIC (Pseudomonas aeruginosa): inactive; MIC (Escherichia coli): inactive
O=C(NNC(=S)Nc1ccc(Cl)c(Cl)c1)c1ccc(O)cc1 | 100 | – | –
COc1ccccc1NC(=S)NNC(=O)c1ccccc1O | – | > 30 | –
O=C(NNC(=S)Nc1ccc(Cl)c(Cl)c1)c1ccc(F)cc1 | 100 | – | –
O=C(NNC(=S)Nc1cccc2ccccc12)c1ccccc1O | – | > 30 | –
O=C(NNC(=S)Nc1cccc(F)c1)c1ccccc1 | 100 | – | –
O=C(NNC(=S)NCCCN1CCOCC1)c1ccccc1O | – | 30 | –

SMILES | Activity [1] [%] | inhibition [2] [%] | further results
O=C(NNC(=S)Nc1cccc(Cl)c1)c1ccccc1O | – | > 30 | MIC (Klebsiella pneumoniae): inactive; MIC (Pseudomonas aeruginosa): inactive; MIC (Escherichia coli): inactive
O=C(NNC(=S)Nc1ccccc1F)c1ccccc1 | 100 | – | –
O=C(NNC(=O)c1ccccc1O)Nc1ccc(Cl)c(Cl)c1 | 100 | – | –
O=C(NNC(=O)c1ccccc1)Nc1ccc(Cl)c(Cl)c1 | 100 | – | –
CC(=O)c1ccc(NC(=S)NNC(=O)c2ccccc2O)cc1 | – | > 30 | –
O=C(NNC(=S)Nc1ccc(Cl)c(Cl)c1)c1cccc(F)c1 | 100 | – | –
CCCCCNC(=S)NNC(=O)c1ccccc1O | – | > 30 | –
O=C(NNC(=S)Nc1ccc(OCc2ccccc2)cc1)c1ccccc1O | – | > 30 | –
Nc1ccc(C(=O)NNC(=S)Nc2ccc(Cl)c(Cl)c2)c(O)c1 | – | > 30 | –
O=C(NNC(=S)Nc1ccccc1F)c1ccccc1O | – | > 30 | –
O=C(NNC(=S)Nc1ccc(Cl)cc1)c1ccccc1O | – | > 30 | –
O=C(NNC(=S)Nc1ccc(Cl)c(Cl)c1)c1ccccc1F | 100 | – | –
COc1ccc(NC(=S)NNC(=O)c2ccccc2O)cc1 | – | > 30 | –
O=C(NNC(=S)Nc1ccc(Cl)c(Cl)c1)c1ccccc1 | 100 | – | –
O=C(NNC(=S)Nc1cccc(F)c1)c1ccccc1O | – | > 30 | –
O=C(NNC(=S)Nc1ccc([N+](=O)[O-])cc1)c1ccc(O)cc1 | 100 | – | –
N[C@@H]1CONC1=O | – | > 30 | –
O=C(NNC(=S)Nc1cccc(I)c1)c1ccccc1O | – | > 30 | –
O=C(NNC(=S)Nc1ccc(Cl)c(Cl)c1)c1ccc(I)cc1O | – | > 30 | –
O=C(NNC(=S)Nc1cccc(Cl)c1)c1ccccc1 | 100 | – | –
